The results in this text go back to patent publication US20140135319A1, “6-SUBSTITUTED IMIDAZOPYRAZINES FOR USE AS MPS-1 AND TKK INHIBITORS IN THE TREATMENT OF HYPERPROLIFERATIVE DISORDERS” (BAYER INTELLECTUAL PROPERTY GMBH, priority 2010, published 2014).

A value given as a limit tells only on which side of the number the result lay.

The experiment addresses T1, human kinase Mps-1 (Homo sapiens, UniProt P33981).
T1 construct: N-terminally GST-tagged human full length recombinant Mps-1 kinase; GST (N); purchased Invitrogen, Karslruhe, Germany PV4071
T1 sequence (P33981 1-857): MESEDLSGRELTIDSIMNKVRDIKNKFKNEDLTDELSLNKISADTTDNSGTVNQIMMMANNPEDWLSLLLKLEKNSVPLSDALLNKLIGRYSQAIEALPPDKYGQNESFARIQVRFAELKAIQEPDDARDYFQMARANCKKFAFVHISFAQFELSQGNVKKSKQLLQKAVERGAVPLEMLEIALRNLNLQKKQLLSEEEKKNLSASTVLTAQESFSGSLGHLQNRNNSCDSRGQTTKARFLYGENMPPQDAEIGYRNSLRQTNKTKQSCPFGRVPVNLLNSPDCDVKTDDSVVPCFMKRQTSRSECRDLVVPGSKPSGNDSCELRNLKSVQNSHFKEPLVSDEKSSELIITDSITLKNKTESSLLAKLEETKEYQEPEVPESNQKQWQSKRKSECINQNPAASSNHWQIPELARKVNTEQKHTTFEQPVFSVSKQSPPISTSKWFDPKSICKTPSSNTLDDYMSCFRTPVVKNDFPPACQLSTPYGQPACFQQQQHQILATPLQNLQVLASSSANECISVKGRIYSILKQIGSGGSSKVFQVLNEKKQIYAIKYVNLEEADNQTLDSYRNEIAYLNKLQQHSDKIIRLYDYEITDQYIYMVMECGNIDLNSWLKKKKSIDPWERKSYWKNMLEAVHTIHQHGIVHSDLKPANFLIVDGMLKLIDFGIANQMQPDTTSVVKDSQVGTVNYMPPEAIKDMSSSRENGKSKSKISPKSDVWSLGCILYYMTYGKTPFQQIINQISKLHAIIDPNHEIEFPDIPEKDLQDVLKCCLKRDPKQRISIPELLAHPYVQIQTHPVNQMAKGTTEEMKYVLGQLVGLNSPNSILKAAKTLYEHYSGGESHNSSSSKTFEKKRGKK
The experiment is described as follows: Mps-1 kinase assay (TR-FRET). Format: biochemical. The following applies: GST-tagged human full length recombinant Mps-1; 10 μM ATP; 1 μM peptide substrate; 60 min at 22° C. A digest of the protocol:
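TR-FRET read-out: after 1 h binding at 22° C, Eu-labelled anti-phospho-Ser/Thr antibody transfers to SA-XLent on the phosphorylated biotinylated peptide. The enzyme is GST-tagged full-length human Mps-1, typically about 1 nM final, in the linear range.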
For orientation: Time-resolved FRET reads energy transfer from a long-lived donor to a nearby acceptor.
In general, IC50 refers to the concentration needed to halve the response being measured. Turning to `CNC(=O)CCCCc1cn2c(-c3ccc(C(=O)NC4CC4)cc3)cnc2c(NCC(C)C)n1` [Example 7-5, N-cyclopropyl-4-{6-[5-(methylamino)-5-oxopentyl]-8-[(2-methylpropyl)amino]imidazo[1,2-a]pyrazin-3-yl} benzamide], the IC50 worked out at 6.5 nM.
With `CC(C)CNc1nc(C2CCN(C)CC2)cn2c(-c3ccc(C(=O)NC4CC4)cc3)cnc12` [Example 7-6, N-cyclopropyl-4-{6-(1-methylpiperidin-4-yl)-8-[(2-methylpropyl)amino]imidazo[1,2-a]pyrazin-3-yl}benzamide] the figure was 3.9 nM; with `CC(C)CNc1nc(C(=O)Nc2ccccc2)cn2c(-c3ccc(C(=O)NC4CC4)cc3)cnc12` [Example 8-1, 3-[4-(cyclopropylcarbamoyl)phenyl]-8-[(2-methylpropyl)amino]-N-phenylimidazo[1,2-a]pyrazine-6-carboxamide], 67.2 nM.
The same measure for `CC(C)CNc1nc(C(=O)NCCN2CCCCC2)cn2c(-c3ccc(C(=O)NC4CC4)cc3)cnc12` [Example 8-2, 3-[4-(cyclopropylcarbamoyl)phenyl]-8-[(2-methylpropyl)amino]-N-[2-(piperidin-1-yl)ethyl] imidazo[1,2-a]pyrazine 6-carboxamide]: 11.7 nM.
As for `CC(C)CNc1nc(C(=O)N2CCCCC2)cn2c(-c3ccc(C(=O)NC4CC4)cc3)cnc12` [Example 8-3, N-cyclopropyl-4-{8-[(2-methylpropyl)amino]-6-(piperidin-1-ylcarbonyl)imidazo[1,2-a]pyrazin-3-yl}benzamide], the IC50 stood at 20.6 nM.
For the compound `Cc1cc(-c2cnc3c(NCCC(F)(F)F)nc(C4=CC[S+]([O-])CC4)cn23)ccc1C(=O)NC1CC1` (centres unmarked) [Example 9-1, N-cyclopropyl-2-methyl-4-{6-(1-oxido-3,6-dihydro-2H-thiopyran-4-yl)-8-[(3,3,3-trifluoropropyl)amino]imidazo[1,2-a]pyrazin-3-yl}benzamide], the IC50 was determined as 16 nM.
The same measure for `Cc1cc(-c2cnc3c(NCCC(F)(F)F)nc(CN)cn23)ccc1C(=O)NC1CC1` [Example 10-1, 4-{6-(aminomethyl)-8-[(3,3,3-trifluoropropyl)amino]imidazo[1,2-a]pyrazin-3-yl}-N-cyclopropyl-2-methylbenzamide]: 82.9 nM; for `Cc1cc(-c2cnc3c(NCCC(F)(F)F)nc(CN4CCCCC4)cn23)ccc1C(=O)NC1CC1` [Example 11-1, N-cyclopropyl-2-methyl-4-{6-(piperidin-1-ylmethyl)-8-[(3,3,3-trifluoropropyl)amino]imidazo[1,2-a]pyrazin-3-yl}benzamide]: 140 nM.
The same measure for `Cc1cc(-c2cnc3c(NCCC(F)(F)F)nc(CNc4ccccc4)cn23)ccc1C(=O)NC1CC1` [Example 11-2, N-cyclopropyl-2-methyl-4-{6-[(phenylamino)methyl]-8-[(3,3,3-trifluoropropyl)amino]imidazo[1,2-a]pyrazin-3-yl}benzamide]: 1.2 nM; for `CC(C)CNc1nc(N2CCCCS2(=O)=O)cn2c(-c3ccc(C(=O)NC4CC4)cc3)cnc12` [Example 12-1, N-cyclopropyl-4-{6-(1,1-dioxido-1,2-thiazinan-2-yl)-8-[(2-methylpropyl)amino]imidazo[1,2-a]pyrazin-3-yl}benzamide]: 6.5 nM; for `CC(C)CNc1nc(Oc2ccccc2)cn2c(-c3ccc(C(=O)NC4CC4)cc3)cnc12` [Example 13-1]: 1 nM.
Turning to `Cc1cc(-c2cnc3c(NCC(C)(C)O)nc(Oc4ccccc4)cn23)ccc1C(=O)NC1CC1` [Example 13-4, N-cyclopropyl-4-{8-[(2-hydroxy-2-methylpropyl)amino]-6-phenoxy-imidazo[1,2-a]pyrazin-3-yl}-2-methylbenzamide], the IC50 stood at 2 nM.
Turning to `Cc1cc(-c2cnc3c(NCC(C)(C)O)nc(Oc4cccc(F)c4)cn23)ccc1C(=O)NC1CC1` [Example 13-5, N-cyclopropyl-4-{6-(3-fluorophenoxy)-8-[(2-hydroxy-2-methylpropyl)amino]imidazo[1,2-a]pyrazin-3-yl}-2-methyl benzamide], the IC50 was found to be 1.7 nM.
As to `CC(C)CNc1nc(C(N)=O)cn2c(-c3ccc(C(=O)NC4CC4)cc3)cnc12` [Example 14-1, 3-[4-(cyclopropylcarbamoyl)phenyl]-8-[(2-methylpropyl)amino]imidazo[1,2-a]pyrazine-6-carboxamide], the IC50 turned out to be 9.9 nM.
Turning to `Cc1cc(-c2cnc3c(NCC(C)(C)O)nc(Sc4ccccc4)cn23)ccc1C(=O)NC1CC1` [Example 15-1, N-cyclopropyl-4-{8-[(2-hydroxy-2-methylpropyl)amino]-6-(phenylsulfanyl)imidazo[1,2-a]pyrazin-3-yl}-2-methylbenzamide], the IC50 is under 1 nM.
With `Cc1cc(-c2cnc3c(NCCC(F)(F)F)nc(Sc4ccccc4)cn23)ccc1C(=O)NC1CC1` [Example 15-2, N-cyclopropyl-2-methyl-4-{6-(phenylsulfanyl)-8-[(3,3,3-trifluoropropyl)amino]imidazo[1,2-a]pyrazin-3-yl}benzamide] the figure was under 1 nM.
The same measure for `Cc1cc(-c2cnc3c(NCCC(F)(F)F)nc(Sc4cccc(F)c4)cn23)ccc1C(=O)NC1CC1` [Example 15-3, N-cyclopropyl-4-{6-[(3-fluorophenyl)sulfanyl]-8-[(3,3,3-trifluoropropyl)amino]imidazo[1,2-a]pyrazin-3-yl}-2-methylbenzamide]: under 1 nM.
